The source of these data is article PMC6351529, “Novel carboxylate-based glycolipids: TLR4 antagonism, MD-2 binding and self-assembly properties” (Scientific Reports, 2019).

On the set-up of data set [1]: method as in PMID 24339336. The following applies: cited from earlier work.
The next data set deals with T1, human TLR4 (Homo sapiens, UniProt O00206+Q9Y6Y9).
T1 construct: host or cells: HEK-Blue hTLR4 (HEK293)
As to the kind of experiment: Inhibition of LPS-stimulated TLR4 activation in HEK293-Blue hTLR4 cells (SEAP reporter). The following applies: LPS 100 ng/mL, 15 min pre-incubation, 16 h, serum-free DMEM. The class given is cell-based. An excerpt:
Synthetic monosaccharides were screened for their capacity to activate or inhibit LPS-stimulated TLR4 activation in HEK293-Blue hTLR4 cells. HEK293-Blue hTLR4 cells are HEK cells transfected in order to express the human receptors involved in LPS detection process (TLR4, MD-2 and membrane-bound CD14) and an inducible SEAP (secreted embryonic alkaline phosphatase) reporter gene placed under the control of NF-kB and AP-1-transcription factors. Activation of the MyD88-dependent TLR4 pathway promotes the production and secretion of SEAP in the cell culture media, which can be easily quantified.
SEAP levels in cell culture media were quantified after 16 hours as indicator of TLR4 activation. Data were normalized to stimulation with LPS alone and fitted to a sigmoidal 4 parameter logistic equation to obtain dose-effect curves (left panel). […] Briefly, cells were cultured in DMEM high glucose medium supplemented with 10% fetal bovine serum (FBS), 2 mM glutamine, antibiotics and 1 × HEK-Blue Selection (InvivoGen). Cells were detached using a cell scraper, counted and seeded in a 96-well multiwell plate at a density of 4 × 10^4 cells per well. […] For the antagonism evaluation, cells were stimulated with LPS (100 ng/mL, E. coli O55:B5, Sigma-Aldrich) after compounds pre-treatment and incubated for 16 hours as above. The SEAP-containing supernatants were collected and incubated with para-nitrophenyl phosphate (pNPP) for 2−4 h in the dark at room temperature. The wells optical density was determined using a microplate reader (labtech LT-4000) set to 405 nm.

Data set [2] relates to C57BL/6 mice. Nature of the data set: LPS-induced serum TNFα in mice, compound i.p. The class given is in vivo, mouse. To be noted: 200 µg i.p., LPS 30 min later, serum after 4 h. Here is the method:
To further investigate whether carboxylate-based lipid A mimetics are able to inhibit LPS-induced signaling in vivo, we injected C57BL/6 mice i.p. with 200 µg of compound FP13 followed by the LPS injection 30 min later. […] The reason for this was unclear and we hypothesized poor distribution and absorption of the compound upon i.p. injection.
C57BL/6 mice were injected i.p. with 200 µg FP13. 30 min later, the mice were i.p. injected with 150 µg of Salmonella enterica LPS, or vehicle and PBS as controls. Mice were sacrificed 4 h later and serum was collected. Serum TNF concentration was determined by Luminex-based Bio-Plex Multiplex system. Error bars represent the standard deviation of the mean.

The subject of data set [3] is C57BL/6 mice. As to the kind of experiment: LPS-induced lung neutrophilia in mice, intratracheal administration. Format: in vivo, mouse. To be noted: 45 µg i.t. with 1 µg LPS, BAL after 16 h. Here is the method:
We therefore also explored the antagonistic capacity of FP13 in a different in vivo model, where LPS and FP13 were both administered locally in the lungs. Intratracheal (i.t.) instillation of LPS is known to cause an acute inflammatory response in mice, characterized by transient infiltration of neutrophils into the airways[57],[58].
PBS and vehicle were administered as controls. Mice were sacrificed 16 h later and neutrophilia in the BAL fluid was measured by flow cytometry. Error bars represent the standard deviation of the mean.

In another data set the target is T2, human MD-2 (hMD-2) (Homo sapiens, UniProt Q9Y6Y9).
T2 construct: made in house; host or cells: Pichia pastoris
T2 sequence (Q9Y6Y9 19-160): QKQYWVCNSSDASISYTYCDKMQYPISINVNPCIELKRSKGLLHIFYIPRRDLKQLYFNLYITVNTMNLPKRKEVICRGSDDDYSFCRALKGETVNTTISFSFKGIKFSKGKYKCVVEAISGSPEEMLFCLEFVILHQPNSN
As to the kind of experiment: Surface plasmon resonance (SPR) on immobilized hMD-2. The following applies: 1:1 Langmuir binding model, 25 °C. Here is the method:
SPR experimental curve optimal fitting was obtained by assuming 1:1 ligand/MD-2 binding stoichiometry.
The binding affinity of the compounds to recombinant hMD-2 was determined using a Biacore X100 with an NTA sensor chip (Biacore, GE Healthcare, Uppsala, Sweden). Briefly, 0.5 μM hMD-2 (in 50 mM TRIS, 150 mM NaCl, 0.5% Tween 20, pH 7.5) was immobilized onto the sensor chip previously activated with 1-min. pulse of 10 mM NiSO4. First flow cell was used as a reference surface to control non-specific binding. Both flow cells were injected with the analyte (in PBS, 5% DMSO, 5% EtOH, pH 7.5) at a flow rate of 10 μL/min at 25 °C in increasing concentrations. The data were analyzed with Biacore Evaluation software. KD values were calculated by global fitting of the equilibrium binding responses from various concentrations of analytes using a 1:1 Langmuir binding model.

The subject of data set [4] is TLR4 signaling in RAW 264.7-Blue cells. As to the kind of experiment: LPS-induced TLR4 signaling in RAW 264.7-Blue cells (SEAP reporter, QUANTI-Blue). The class given is cell-based, murine. Here is the method: To characterize the effect of synthetic compounds FP13-17 on cells naturally expressing TLR4, we used the murine macrophage RAW 264.7-Blue cell line, which are murine RAW 264.7 macrophages with chromosomal integration of SEAP reporter construct described in the previous section.
Figure 8 Inhibition of LPS-induced TLR4 signaling in RAW 264.7-Blue cells. […] SEAP reporter levels in the cell supernatant were determined by QuantiBlue Assay 24 h later. Error bars represent the standard deviation of the mean of technical triplicates. The graph is representative of at least three independent experiments.
Murine RAW 264.7-Blue cells (Invivogen) derived from the murine RAW 264.7 macrophages and stably expressing an NF-κB-inducible secreted alkaline phosphatase (SEAP) reporter gene were cultured in Dulbecco’s modified Eagle’s medium (DMEM), supplemented with 10% Fetal bovine serum (FBS), L-Glutamine (2 mM) and sodium pyruvate (0.4 mM), in the presence of selection antibiotic Zeocin (200 μg/mL). E. coli O111:B4 LPS was purchased from Invivogen. Bovine serum albumin (BSA) was purchased from Sigma-Aldrich. Compounds FP13-17 were reconstituted in DMSO/ethanol to provide a 10 mM stock solution. […] C57BL6/J mice were obtained from Janvier. […]
[…] 24 h later cell supernatants were analyzed for SEAP production by the QUANTI-Blue Assay (Invivogen).

Structures are written as SMILES.

T1 sequence (O00206 24-839, one chain of several): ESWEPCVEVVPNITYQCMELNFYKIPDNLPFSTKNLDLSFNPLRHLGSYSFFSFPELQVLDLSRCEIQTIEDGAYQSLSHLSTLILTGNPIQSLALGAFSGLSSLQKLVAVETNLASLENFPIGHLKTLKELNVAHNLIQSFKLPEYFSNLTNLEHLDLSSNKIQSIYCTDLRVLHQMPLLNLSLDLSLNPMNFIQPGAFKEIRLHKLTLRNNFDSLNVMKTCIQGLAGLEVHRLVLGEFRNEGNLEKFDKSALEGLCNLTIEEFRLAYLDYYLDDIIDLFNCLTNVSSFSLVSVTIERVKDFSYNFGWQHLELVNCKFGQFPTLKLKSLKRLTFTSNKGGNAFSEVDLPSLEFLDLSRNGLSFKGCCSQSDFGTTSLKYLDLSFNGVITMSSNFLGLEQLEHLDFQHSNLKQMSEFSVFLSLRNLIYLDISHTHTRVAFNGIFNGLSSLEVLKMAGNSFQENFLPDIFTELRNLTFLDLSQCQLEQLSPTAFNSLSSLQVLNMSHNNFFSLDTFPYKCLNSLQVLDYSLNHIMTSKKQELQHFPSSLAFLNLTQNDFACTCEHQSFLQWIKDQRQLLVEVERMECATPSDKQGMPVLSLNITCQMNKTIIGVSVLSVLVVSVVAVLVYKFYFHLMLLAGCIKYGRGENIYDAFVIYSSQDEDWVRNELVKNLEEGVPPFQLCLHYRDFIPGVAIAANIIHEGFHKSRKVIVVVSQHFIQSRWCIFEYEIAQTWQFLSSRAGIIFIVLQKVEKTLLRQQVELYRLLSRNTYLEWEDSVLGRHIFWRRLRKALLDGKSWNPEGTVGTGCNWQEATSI

In the case of `CCCCCCCCCCCCCC(=O)N[C@H]1[C@@H](OP(=O)(O)O)O[C@H](CO)[C@@H](OP(=O)(O)O)[C@@H]1OC(=O)CCCCCCCCCCCCC` [FP7], in data set [1], the CMC entry is on record as “about 9 µM”.

The IC50 is the concentration that inhibits the measured activity by half. By Kd is commonly meant the free concentration of one partner at which half of the binding sites on the other are occupied at equilibrium, for simple one-to-one binding. A lower Kd goes with tighter binding. On human TLR4, `CCCCCCCC/C=C\CCCCCCCC(=O)N[C@H]1[C@H](OC(=O)CCC(=O)O)O[C@H](CO)[C@@H](OC(=O)CCC(=O)O)[C@@H]1OC(=O)CCCCCCC/C=C\CCCCCCCC` [FP13] had an IC50 of 5.91 µM. Moreover, the “effect on LPS-induced serum TNFα levels” value in the data set with C57BL/6 mice [2] is listed as “did not affect”. Besides, in the data set with C57BL/6 mice [3], the “effect on LPS-induced neutrophil infiltration into the airways” value was “failed to suppress”. This compound also yielded a Kd on human MD-2 (hMD-2) of 9 µM. Moreover, the “antagonistic activity in presence of serum” value in data set [4] (DMEM supplemented with 10% FBS) is listed as “completely neutralized”. Also, the “antagonistic activity in presence of BSA” value in data set [4] (serum-free with 4 or 20 mg/mL BSA) was “strongly decreased”.

`CCCCC/C=C\C/C=C\CCCCCCCC(=O)N[C@H]1[C@H](OC(=O)CCC(=O)O)O[C@H](CO)[C@@H](OC(=O)CCC(=O)O)[C@@H]1OC(=O)CCCCCCC/C=C\C/C=C\CCCCC` [FP14] gave an IC50 against human TLR4 of 4.35 µM. At human MD-2 (hMD-2), the affinity, expressed as Kd, was 35 µM.

As to `CCCCCCCC/C=C\CCCCCCCC(=O)N[C@H]1[C@H](OC(=O)CCC(=O)O)O[C@H](CO)[C@@H](OC(=O)CCC(=O)O)[C@@H]1OC(=O)CCCCCCCCCCCCC` [FP15], the IC50 at human TLR4 turned out to be 3.5 µM. Binding on human MD-2 (hMD-2) was characterised by a dissociation constant (Kd) of 14 µM.

Regarding `CCCCC/C=C\C/C=C\CCCCCCCC(=O)N[C@H]1[C@H](OC(=O)CCC(=O)O)O[C@H](CO)[C@@H](OC(=O)CCC(=O)O)[C@@H]1OC(=O)CCCCCCCCCCCCC` [FP16], on human TLR4, inhibition was half-maximal at 6.61 µM (IC50). Also, binding on human MD-2 (hMD-2) was characterised by a dissociation constant (Kd) of 21 µM.

Take `CCCCCCCCCCCCCC(=O)N[C@H]1[C@H](OC(=O)CCC(=O)O)O[C@H](CO)[C@@H](OC(=O)CCC(=O)O)[C@@H]1OC(=O)CCCCCCCCCCCCC` [FP17]: the IC50 against human TLR4 is 2.7 µM. On human MD-2 (hMD-2), this compound showed a Kd of 12 µM.
